Experimental data: PMC8819291, “Adaptively evolved human oral actinomyces‐sourced defensins show therapeutic potential” (EMBO Molecular Medicine, 2021)
pKd: −log10 of the molar value. Where two headings read alike, the source gives them in different places. Where a SMILES comes first, the peptide text is derived from it. Bridges are numbered along the chain shown (N, C = ends).

Tests used:
[1] = Bioaffinity ESI-MS with UMP; format: binding, Staphylococcus aureus; conditions: 25 mM ammonium acetate (pH5.2)
Method: All components for interactions were dissolved in 25 mM ammonium acetate (pH5.2). Electrospray spectra were recorded with Waters SynaptG2‐Si mass spectrometer (Waters, Manchester, UK) and measurements were performed with positive ESI in resolution mode. Ions were scanned in a mass range of 500–2,000 m/z with the following conditions: the capillary voltage at 1,500 V; the cone voltage at 40 V; the source block temperature at 30°C. Spectra were recorded and processed by the software Masslynx4.1 (Waters, Manchester, UK).

HL‐60 = test: Cytotoxicity assay (CCK-8); format: cell-based, human; conditions: 72 h
Method: Cells were cultured at 37°C in 5% CO2: 95% air incubator in Minimum Essential Medium (MEM) supplemented with 10% (v/v) fetal bovine serum (FBS). Cells were seeded at a density of 7 × 10^3 cells per well in 96‐well plates and incubated for 24 h. Media were then replaced with 200 μl of media containing various concentrations of peptides. The cells were incubated for 72 h and cytotoxicity was assessed with CCK‐8 Kits (Dojindo Molecular Technologies, Tokyo, Japan). Absorbance was detected at 450 nm with the TECAN Infinite M200 microplate reader (Tecan, Durham, USA).

[2] = Stability in H2O (residual activity by inhibition-zone assay); format: physicochemical; conditions: 48‐h incubation in H2O at 37°C
SM membrane = test: Membrane permeability assay (propidium iodide); format: cell-based, Streptococcus mutans; conditions: 10 × C L; 5 × 10^5 cells in PBS pH 7.3, 1 μM PI
Method: Fluorescence was measured with the F‐4500 FL spectrophotometer (Hitachi High‐Technology Company, Japan).

[3] = SPR binding of UMP to immobilized AMSIN (Biacore T100); conditions: read-out: Binding affinity of AMSIN to UMP (K D); AMSIN immobilized on CM5, UMP 100–3.125 μM in PBS-T pH 7.5, 25°C; 1:1 Langmuir model
Method: Surface plasmon resonance (SPR) analysis was performed on a Biacore T100 instrument with a CM‐5 sensor chip (GE Healthcare Life Sciences, USA) at 25°C. An amide coupling chemistry strategy was used to immobilize AMSIN on the chip surface. […] Non‐reacted carboxylic groups on the sensor chip surface were blocked by ethanolamine‐HCl (1 M, pH 8.5) for 420 s at a flow rate of 10 μl/min. The final immobilization level was 1,778 RUs. For detecting binding, the analyte UMP was serially diluted twofold with the running buffer PBS‐T (PBS buffer containing 0.05% Tween 20, pH 7.5) at final concentrations of 100–3.125 μM. Then, they were used to flow over the chip surface at a flow rate of 30 μl/min for 60 s. Dissociation was monitored for 120 s by injecting the running buffer suddenly after samples at a flow rate of 30 μl/min for complete removal of specifically and non‐specifically bound biological material from the surface. Responses were measured in RUs as the difference between active and reference channels. The binding curve was fitted with the software BIAevaluation v2.0.1 using 1:1 Langmuir binding model.

SP R6 = test: RNA sequencing of the stimulon; format: cell-based, Streptococcus pneumoniae; conditions: sub‐lethal concentration, 10 min
Method: Cells were harvested and washed with PBS buffer (pH 7.3) following further incubation for 10 min. Total RNA was isolated using the Bacteria Total RNA Isolation Kit (Sangon, China) according to the manufacturer’s instruction. RNA quality was assessed by NanoDrop and Agilent 2100 Bioanalyzer (Table EV6). After enrichment and fragment, mRNA was reverse transcribed into single‐strand DNA and then synthesized into double‐strand DNA. Following end‐filling, 5′‐phosphorylation, bubble adaptor ligation, and PCR amplification, a single‐strand circled DNA library was established for sequencing in BGISEQ‐500 sequencer (BGI, China) with a combinatorial probe‐anchor synthesis (cPAS) strategy.

[4] = 37°C
A549 cells = test: Peptide-induced IL-8 release (ELISA); format: cell-based, human; conditions: 24 h
Method: A549 and HL‐60 cells were purchased from the Cell Resource Center of the Chinese Academy of Medical Sciences (Beijing, China). They were tested for mycoplasma contamination with the Mycoplasma Detection Kit (Solarbio, China) and only negative cultures were used in our experiments. The cells were cultured in complete Dulbecco’s Modified Eagle Medium (DMEM) supplemented with 10% fetal bovine serum (FBS), penicillin (100 units/ml), and streptomycin ([…]) at 37°C in 5% CO2. The culture medium was changed every 2 days. Cells were passaged every 4–5 days with 0.25% trypsin (Gibco, USA). For enzyme‐linked immunosorbent assay (ELISA) (Hara et al, [2008]), A549 or HL‐60 cells were seeded in six‐well plates at a density of 1 × 10^5 cells/well and were incubated at 37°C in 5% CO2 overnight. Medium was aspirated and replaced with fresh complete DMEM supplemented with 10% FBS or serum‐free medium, both containing different concentrations of polypeptides for 24 h. Then, the supernatants were harvested for quantification of the IL‐8 amount in A549 by the Human CXCL8/IL‐8 Quantikine ELISA Kit (R&D Systems Inc., Minneapolis, MN, USA) and the MCP‐1 amount in HL‐60 by the Human MCP‐1 ELISA Kit (Boster Biological Technology Co., Ltd, Wuhan, China) as per the manufactures’ instructions.

[5] = system: Methicillin‐resistant coagulase negative Staphylococci P1369; test: Inhibition-zone assay (lethal concentration); format: cell-based, Staphylococcus; conditions: Broth Medium, 37°C
Excerpt: Bacterial media used here included: Luria‐Bertani (LB) medium, THY medium (30 g Todd Hewitt broth and 5 g Yeast extract per liter), and tryptic soy broth (TSB) (Oxoid, Basingstoke, UK); Broth medium and brain–heart infusion (BHI) medium (Beijing Landbridge technology Limited by Share Ltd., Beijing, China); Potato dextrose (PD) medium (self‐prepared).
In brief, an overnight bacterial culture from a single colony was inoculated into fresh medium and grew to late log‐phase. A 10‐μl aliquot of each culture was diluted in 6‐ml pre‐heated medium containing 0.8% agar. The mixture was spread on a 9‐cm Petri dish, giving a depth of 1 mm. After settling, 3‐mm wells were punched in the plate and then 2‐μl peptide samples of different concentrations were added to each well. The agar plates were incubated overnight at indicated temperatures (Table EV4). A lethal concentration (C L ) was calculated from a plot of d^2 against log n, where d is the diameter (in cm) and n is the amount of sample applied in the well (in nmol). The plot is linear, and thus C L can be calculated from the slope (k) and the intercept (m) of this plot.

Structure (SMILES): CC[C@H](C)[C@@H]1NC(=O)[C@H](CCCCN)NC(=O)CNC(=O)[C@H](CCCNC(=N)N)NC(=O)[C@@H]2CSSC[C@H](NC(=O)CNC(=O)[C@H](Cc3ccccc3)NC(=O)CN)C(=O)N3CCC[C@H]3C(=O)N[C@@H](Cc3c[nH]c4ccccc34)C(=O)N[C@@H](CC(N)=O)C(=O)N[C@@H](C)C(=O)N[C@@H](Cc3ccc(O)cc3)C(=O)N[C@@H](CCC(=O)O)C(=O)N[C@H]3CSSC[C@H](NC(=O)[C@H]([C@@H](C)O)NC(=O)[C@H](CCC(N)=O)NC(=O)[C@H](CCCNC(=N)N)NC1=O)C(=O)N[C@@H](Cc1c[nH]cn1)C(=O)N[C@H](C(=O)N[C@@H](Cc1ccc(O)cc1)C(=O)O)CSSC[C@H](NC(=O)[C@H](Cc1c[nH]cn1)NC(=O)[C@H](CCCNC(=N)N)NC(=O)[C@H](CC(=O)O)NC3=O)C(=O)N[C@@H](C(C)C)C(=O)N[C@@H](CO)C(=O)N[C@@H](CCCCN)C(=O)NCC(=O)N[C@@H](Cc1ccc(O)cc1)C(=O)N[C@@H]([C@@H](C)O)C(=O)NCC(=O)NCC(=O)N[C@@H](CC(N)=O)C(=O)N2 [AMSIN] (H-GFGCPWNAYECDRHCVSKGYTGGNCRGKIRQTCHCY-OH; disulfide 4-25, 11-33, 15-35; N-terminus and C-terminus assumed)
- Non-covalent complex with UMP by ESI-MS [1]: quadruply protonated complex
- Cellular variability of HL-60 (%) (HL‐60; 25 μg/mL, replicate 1): 97%
- Cellular variability of HL-60 (%) (HL‐60; 25 μg/mL, replicate 2): 101%
- Cellular variability of HL-60 (%) (HL‐60; 25 μg/mL, replicate 3): 108%
- Cellular variability of HL-60 (%) (HL‐60; 50 μg/mL, replicate 1): 97%
- Cellular variability of HL-60 (%) (HL‐60; 50 μg/mL, replicate 2): 100%
- Cellular variability of HL-60 (%) (HL‐60; 50 μg/mL, replicate 3): 103%
- Cellular variability of HL-60 (%) (HL‐60; 100 μg/mL, replicate 1): 97%
- Cellular variability of HL-60 (%) (HL‐60; 100 μg/mL, replicate 2): 102%
- Cellular variability of HL-60 (%) (HL‐60; 100 μg/mL, replicate 3): 106%
- Residual antibacterial activity [2]: full antibacterial activity
- Effect on bacterial membrane integrity (propidium iodide fluorescence) (SM membrane): did not impair the integrity of bacterial membrane
- pKd [3]: 4.62
- Transcriptional profile compared with vancomycin (SP R6): partly overlapped
- Residual antibacterial activity ([4]; 24 h in fresh normal mouse serum without dilution): full antibacterial activity
- Activity in serum compared with in H2O ([4]; undiluted mouse serum, 48‐h study period): slight decrease
- IL-8 (A549 cells; FBS-containing medium, 25 μg/mL, replicate 1): 93 pg/mL
- IL-8 (A549 cells; FBS-containing medium, 25 μg/mL, replicate 2): 101 pg/mL
- IL-8 (A549 cells; FBS-containing medium, 25 μg/mL, replicate 3): 99 pg/mL
- IL-8 (A549 cells; FBS-containing medium, 50 μg/mL, replicate 1): 116 pg/mL
- IL-8 (A549 cells; FBS-containing medium, 50 μg/mL, replicate 2): 121 pg/mL
- IL-8 (A549 cells; FBS-containing medium, 50 μg/mL, replicate 3): 122 pg/mL
- IL-8 (A549 cells; FBS-containing medium, 100 μg/mL, replicate 1): 111 pg/mL
- IL-8 (A549 cells; FBS-containing medium, 100 μg/mL, replicate 2): 103 pg/mL
- IL-8 (A549 cells; FBS-containing medium, 100 μg/mL, replicate 3): 106 pg/mL
- IL-8 (A549 cells; Serum-Free medium, 25 μg/mL, replicate 1): 51 pg/mL
- IL-8 (A549 cells; Serum-Free medium, 25 μg/mL, replicate 2): 40 pg/mL
- IL-8 (A549 cells; Serum-Free medium, 25 μg/mL, replicate 3): 42 pg/mL
- IL-8 (A549 cells; Serum-Free medium, 50 μg/mL, replicate 1): 40 pg/mL
- IL-8 (A549 cells; Serum-Free medium, 50 μg/mL, replicate 2): 48 pg/mL
- IL-8 (A549 cells; Serum-Free medium, 50 μg/mL, replicate 3): 42 pg/mL
- IL-8 (A549 cells; Serum-Free medium, 100 μg/mL, replicate 1): 67 pg/mL
- IL-8 (A549 cells; Serum-Free medium, 100 μg/mL, replicate 2): 78 pg/mL
- IL-8 (A549 cells; Serum-Free medium, 100 μg/mL, replicate 3): 67 pg/mL
- Lethal concentration (C L) [5]: 1.07 µM
